Reference: paper PMC11610137, “TRIM4 enhances small-molecule-induced neddylated-degradation of CORO1A for triple negative breast cancer therapy” (Theranostics, 2024)

Biological target: T1, Coronin 1A (CORO1A) (Homo sapiens, UniProt P31146)
T1 construct: EGFP-tagged CORO1A overexpressed in HEK 293T cells (lysate)
Test: MST with EGFP-CORO1A cell lysate; supported by CETSA and DARTS in MDA-MB-231 cells
Type: binding

T1 sequence (P31146 2-461): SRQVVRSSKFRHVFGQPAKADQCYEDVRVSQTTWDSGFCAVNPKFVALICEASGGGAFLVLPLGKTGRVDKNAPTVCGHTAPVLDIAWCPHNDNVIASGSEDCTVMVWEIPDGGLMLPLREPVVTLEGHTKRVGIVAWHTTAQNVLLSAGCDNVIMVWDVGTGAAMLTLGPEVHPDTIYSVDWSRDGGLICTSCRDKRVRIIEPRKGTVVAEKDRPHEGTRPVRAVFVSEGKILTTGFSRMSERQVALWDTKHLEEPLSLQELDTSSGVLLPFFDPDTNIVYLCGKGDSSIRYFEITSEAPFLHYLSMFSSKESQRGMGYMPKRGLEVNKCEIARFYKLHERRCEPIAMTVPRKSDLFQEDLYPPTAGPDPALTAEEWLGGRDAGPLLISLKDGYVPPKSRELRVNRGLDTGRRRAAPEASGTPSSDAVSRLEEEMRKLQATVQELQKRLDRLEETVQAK

Q: For Aurovertin B [AB], which Kd is on record?
A: The Kd was 352 nM.
